Test results from patent US20110144188A1, “SALTS OF T[…] N-[…] TRIMEBUTINE” (Antibe Therapeutics Inc., priority 2006, published 2011).

Columns and labels:
[1] = tested on: abdominal pain in patients with functional bowel disorders; settings: especially IBS, 300 to 600 mg/day; cited from earlier work
[2] = tested on: rat model of visceral pain perception; test: Rat model of visceral pain perception (colorectal distension, AWR score and colorectal pressure); format: in vivo
Protocol: A rat model of visceral pain perception, a pre-clinical model of irritable bowel syndrome, was used in the following example. Rats (male, Wistar, 200-250 g, obtained from Charles River, Monza, Italy), were housed in plastic cages and maintained under controlled conditions with 12-hours light/dark cycle with lights on at 7.00 AM. Tap water and standard laboratory chow were freely available. Before experiments, rats were individually trained by spending 2-3 hours per day in a plexiglass cage for 2-3 days. It allowed them to adjust to a movement-restriction environment. Food was withheld for 12 hours before colorectal distension (CRD) recording were performed. Experiments were performed in awake rats and were conducted in a blind manner in that the observer was not aware of the identity of drug administered to each animal.
On the testing day, rats were sedated with ether inhalation and a 2 cm long latex balloon was inserted intrarectally 2 cm from the anal verge and fixed at the base of the tail. The balloon was connected via a double-barreled cannula to a pressure transducer to continuously monitoring the rectal pressure by a computer (PowerLab PC, A.D. Instruments, Milford, Mass., USA) and to a syringe for inflation/deflation of the balloon. The rats were then housed in a small cage (20×8×8 cm) on an elevated Plexiglas™ platform and allowed to wake up and adapt for 1 hour. After recovery from sedation, animals underwent the CRD procedure and behavioral responses were tested. The night before the experiments, the balloons were inflated and left overnight so the latex stretched and the balloons became compliant.
CRD of 20 seconds, performed every 5 minutes, was applied in increment of 0.4 ml starting from 0.4 ml up to 1.6 ml water. To achieve an accurate measurement of the colonic parameters and perception, the distensions were repeated twice for each intensity and data for each animal were averaged for analysis. Each animal underwent a double set of CRD. Twenty minutes after the first sequence of CRD (0.4 mL-1.6 ml water), drugs were administered intraperitoneally (i.p.) and a second set of CRD was performed. Behavioral responses during the first and the second set of CRD were assessed and compared.
Behavioral response to CRD was assessed by measuring the abdominal withdrawal reflex (AWR) using a semi-quantitative score (1).
The effects of trimebutine maleate, nitroarginine and trimebutine nitroargininate on colonic compliance and sensitivity were determined using a total of 15 fasting rats. […]
To determine the effect of trimebutine maleate, nitroarginine and trimebutine nitroargininate on colonic smooth muscle, the compliance of the colo-rectum during CRD was obtained from intracolo-rectal volume and pressure and expressed as mL/mmHg. […]

NC(=S)c1ccc(C(=O)O)cc1
melting point: 296 to 298 °C (dec.)

CCC(COC(=O)c1cc(OC)c(OC)c(OC)c1)(c1ccccc1)N(C)C (stereo not drawn) [Trimebutine, 3,4,5-trimethoxybenzoic acid 2-(dimethylamino)-2-phenylbutylester]
treatment of abdominal pain in patients [1]: effective in the treatment of both acute and chronic abdominal pain

CCC(COC(=O)c1cc(OC)c(OC)c(OC)c1)(c1ccccc1)N(C)C.N=C(NCCC[C@H](N)C(=O)O)N[N+](=O)[O-] (stereo not drawn) [trimebutine nitroargininate]
reducing visceral pain in response to colorectal distension (AWR score) ([2]; Wistar rats, 16 mg/kg i.p., vs trimebutine maleate 10 mg/kg i.p. and nitroarginine 6 mg/kg, FIGS. 1(a), 2(a), 3(a)): more effective than either trimebutine maleate or nitroarginine
visceral analgesic effects (AWR score) after pretreatment with L-NAME ([2]; rats, 16 mg/kg i.p., L-NAME 25 mg/kg i.v. 10 min before, FIG. 4(a)): largely abolished
visceral analgesic effects (AWR score) after pretreatment with methylene blue ([2]; rats, 16 mg/kg i.p., methylene blue 1 mg/kg i.p. 10 min before, FIG. 4(b)): largely abolished

CCC(COC(=O)c1cc(OC)c(OC)c(OC)c1)(c1ccccc1)N(C)C.NC(=S)c1ccc(C(=O)O)cc1 (stereo not drawn) [trimebutine thiocarbamoylbenzoate, 3,4,5-trimethoxybenzoic acid 2-(dimethylamino)-2-phenylbutyl ester 4-thiocarbamoyl benzoate]
reducing visceral pain in response to colorectal distension (AWR score) ([2]; rats, dose equimolar to trimebutine maleate 10 mg/kg, vs trimebutine maleate and thiocarbamoylbenzoate alone, FIGS. 5(a), 5(b)): more effective than either trimebutine maleate or thiocarbamoylbenzoate
